Measurements reported in US20260053861A1, “CELL COMPOSITIONS AND METHODS OF USING THE SAME” (THE REGENTS OF THE UNIVERSITY OF CALIFORNIA, priority 2022, published 2026).
Counter-ions that a name gives are not always drawn.

System: hPSC-SCs
Conditions: not given

Structure (SMILES) | z.score.t
CC(=O)OCC1=C(C(=O)O)N2C(=O)[C@@H](N)[C@H]2SC1 [Cephalosporanic acid, 7-amino] | −0.7049
O=C(O)CCCc1ccc(N(CCCl)CCCl)cc1 [Chlorambucil] | −1.263
CN1C(=O)CCS(=O)(=O)C1c1ccc(Cl)cc1 (stereo not drawn) [Chlormezanone] | −0.5532
CCN(CC)CCCC(C)Nc1ccnc2cc(Cl)ccc12 (stereo not drawn) [Chloroquine diphosphate] | 0.7847
C=C1CC[C@H](O)C/C1=C/C=C1\CCC[C@]2(C)[C@@H]([C@H](C)CCCC(C)C)CC[C@@H]12 [Cholecalciferol] | 1.034
O=C1C=CC(=O)c2c1ccc1c2ccc2ccccc21 [Chrysene-1,4-quinone] | −1.823
CC(C)(C)NCC(O)c1cc(Cl)c(N)c(Cl)c1 (stereo not drawn) [Clenbuterol hydrochloride] | 0.4048
Cc1c(Cl)cccc1Nc1ncccc1C(=O)O.NCCCC[C@H](N)C(=O)O [Clonixin Lysinate] | 0.9603
COc1cc2c(c(OC)c1OC)-c1ccc(OC)c(=O)cc1[C@@H](NC(C)=O)CC2 [Colchicine] | −1.804
CCN1C[C@]2(COC)CC[C@H](O)[C@@]34C5C[C@@H]6[C@@H](OC)C[C@](O)(C(CC23)C14)C5[C@H]6OC(C)=O (stereo partly drawn) [Condelphine] | 2.361
COc1cc2cc3c4cc(OC)c(OC)cc4cc[n+]3c(C)c2cc1OC.O.[Cl-] [Coralyne chloride hydrate] | −1.014

Same assay, conditions: HTS viability of hPSC-SCs in the presence of 30 mM glucose; Prestwick library; Table S4

Structure (SMILES) | z.score.t
NCc1ccccc1CC(=O)N[C@@H]1C(=O)N2C(C(=O)O)=C(CSc3nnnn3CC(=O)O)CS[C@H]12 [Ceforanide] | −0.5532
CO/N=C(\C(=O)N[C@@H]1C(=O)N2C(C(=O)O)=C(COC(C)=O)CS[C@H]12)c1csc(N)n1 [Cefotaxime sodium salt] | 1.931
CO[C@@]1(NC(=O)C2SC(=C(C(N)=O)C(=O)O)S2)C(=O)N2C(C(=O)O)=C(CSc3nnnn3C)CS[C@@H]21 (stereo partly drawn) [Cefotetan] | −0.4942
CN(C)CCn1nnnc1SCC1=C(C(=O)O)N2C(=O)[C@@H](NC(=O)Cc3csc(N)n3)[C@H]2SC1 [Cefotiam hydrochloride] | −1.122
CO[C@@]1(NC(=O)Cc2cccs2)C(=O)N2C(C(=O)O)=C(COC(N)=O)CS[C@@H]21 [Cefoxitin sodium salt] | 0.6964
NC(=O)c1cc[n+](CC2=C(C(=O)O)N3C(=O)[C@@H](NC(=O)[C@@H](c4ccccc4)S(=O)(=O)[O-])[C@H]3SC2)cc1 [Cefsulodin sodium salt] | −0.03362
CC(C)(O/N=C(\C(=O)N[C@@H]1C(=O)N2C(C(=O)[O-])=C(C[n+]3ccccc3)CS[C@H]12)c1csc(N)n1)C(=O)O [Ceftazidime pentahydrate] | 0.563
CO/N=C(\C(=O)N[C@@H]1C(=O)N2C(C(=O)O)=C(COC(N)=O)CS[C@H]12)c1ccco1 [Cefuroxime sodium salt] | −0.8132
CC1=C(C(=O)O)N2C(=O)[C@@H](NC(=O)[C@H](N)c3ccccc3)[C@H]2SC1 [Cephalexin monohydrate] | 1.08
CC(=O)OCC1=C(C(=O)O)N2C(=O)[C@@H](NC(=O)Cc3cccs3)[C@H]2SC1 [Cephalothin sodium salt] | −1.359
O=C(O)COCCN1CCN(C(c2ccccc2)c2ccc(Cl)cc2)CC1 (stereo not drawn) [Cetirizine dihydrochloride] | −0.3112
C[C@H](CCC(=O)O)[C@H]1CC[C@H]2[C@@H]3[C@H](O)C[C@@H]4C[C@H](O)CC[C@]4(C)[C@H]3CC[C@]12C [Chenodiol] | 1.481
COc1cc(-c2ccc(N=Nc3ccc4c(S(=O)(=O)[O-])cc(S(=O)(=O)[O-])c(N)c4c3O)c(OC)c2)ccc1N=Nc1ccc2c(S(=O)(=O)[O-])cc(S(=O)(=O)[O-])c(N)c2c1O.[Na+].[Na+].[Na+].[Na+] [Chicago sky blue 6B] | 0.6578
O=C(N[C@H](CO)[C@H](O)c1ccc([N+](=O)[O-])cc1)C(Cl)Cl [Chloramphenicol] | 1.278
CN1CCN(C(c2ccccc2)c2ccc(Cl)cc2)CC1 (stereo not drawn) [Chlorcyclizine hydrochloride] | −1.754
[H]/N=C(\N/C(=N/[H])NCCCCCCNC(=N)NC(=N)Nc1ccc(Cl)cc1)Nc1ccc(Cl)cc1 [Chlorhexidine] | 1.056
O=C(/C=C/c1ccc(O)c(O)c1)O[C@@H]1C[C@](O)(C(=O)O)C[C@@H](O)[C@H]1O [Chlorogenic acid] | 0.888
CN(C)CCN(Cc1ccc(Cl)cc1)c1ccccn1 [Chloropyramine hydrochloride] | −0.5169
NS(=O)(=O)c1cc2c(cc1Cl)N=CNS2(=O)=O [Chlorothiazide] | 1.171
COc1ccc(C(Cl)=C(c2ccc(OC)cc2)c2ccc(OC)cc2)cc1 [Chlorotrianisene] | −0.5169
CN(C)CCC(c1ccc(Cl)cc1)c1ccccn1 (stereo not drawn) [Chlorpheniramine maleate] | 0.5452

Structure (SMILES) | z.score.t
NC(=O)OCC(O)COc1ccc(Cl)cc1 (stereo not drawn) [Chlorphensin carbamate] | −0.09426
CN(C)CCCN1c2ccccc2Sc2ccc(Cl)cc21 [Chlorpromazine hydrochloride] | −1.622
CCCNC(=O)NS(=O)(=O)c1ccc(Cl)cc1 [Chlorpropamide] | 0.1979
CN(C)CC/C=C1/c2ccccc2Sc2ccc(Cl)cc21 [Chlorprothixene hydrochloride] | −0.6678
CN(C)[C@@H]1C(O)=C(C(N)=O)C(=O)[C@@]2(O)C(O)=C3C(=O)c4c(O)ccc(Cl)c4[C@@](C)(O)[C@H]3C[C@@H]12 [Chlortetracycline hydrochloride] | 0.02534
NS(=O)(=O)c1cc(C2(O)NC(=O)c3ccccc32)ccc1Cl (stereo not drawn) [Chlorthalidone] | −1.061
O=c1cc(-c2ccccc2)oc2cc(O)cc(O)c12 [Chrysin] | 0.2139
Cc1cc(C2CCCCC2)n(O)c(=O)c1.NCCO [Ciclopirox ethanolamine] | −1.422
O=C1CCc2cc(OCCCCc3nnnn3C3CCCCC3)ccc2N1 [Cilostazol] | 1.73
CN/C(=N/CCSCc1nc[nH]c1C)NC#N [Cimetidine] | 0.4346
C=C[C@H]1C[N@@]2CC[C@H]1C[C@@H]2[C@@H](O)c1ccnc2ccccc12 [Cinchonine] | 1.252
C(=C\c1ccccc1)/CN1CCN(C(c2ccccc2)c2ccccc2)CC1 [Cinnarizine] | −0.8513
CCn1nc(C(=O)O)c(=O)c2cc3c(cc21)OCO3 [Cinoxacin] | 0.9525
CC(C)(Oc1ccc(C2CC2(Cl)Cl)cc1)C(=O)O (stereo not drawn) [Ciprofibrate] | −0.2611
O=C(O)c1cn(C2CC2)c2cc(N3CCNCC3)c(F)cc2c1=O [Ciprofloxacin hydrochloride] | 0.6386
COc1cc(N)c(Cl)cc1C(=O)NC1CCN(CCCOc2ccc(F)cc2)CC1OC (stereo not drawn) [Cisapride] | 0.3436
CN(C)CCCC1(c2ccc(F)cc2)OCc2cc(C#N)ccc21 (stereo not drawn) [Citalopram Hydrobromide] | −0.5169
COc1cc(N)c(Cl)cc1C(=O)NC1CCN(Cc2ccccc2)CC1 [Clebopride maleate] | 1.08
CN1CCC[C@@H]1CCO[C@](C)(c1ccccc1)c1ccc(Cl)cc1 [Clemastine fumarate] | −1.892
Clc1ccc(Cn2c(CN3CCCC3)nc3ccccc32)cc1 [Clemizole hydrochloride] | 0.7789
C[N+]12CCC(CC1)C(OC(=O)C(O)(c1ccccc1)c1ccccc1)C2 (stereo not drawn) [Clidinium bromide] | 1.743

Structure (SMILES) | z.score.t
Oc1c(I)cc(Cl)c2cccnc12 [Clioquinol] | −0.2802
CCC(=O)O[C@]1(C(=O)CCl)[C@@H](C)C[C@H]2[C@@H]3CCC4=CC(=O)C=C[C@]4(C)[C@@]3(F)[C@@H](O)C[C@@]21C [Clobetasol propionate] | 1.323
C[C@@H]1C[C@H]2[C@@H]3C[C@H](F)C4=CC(=O)C=C[C@]4(C)[C@@]3(Cl)[C@@H](O)C[C@]2(C)[C@H]1C(=O)COC(=O)C(C)(C)C [Clocortolone pivalate] | −0.7388
CC(C)/N=c1\cc2n(-c3ccc(Cl)cc3)c3ccccc3nc-2cc1Nc1ccc(Cl)cc1 [Clofazimine] | −1.765
CC(C)(Oc1ccc(Cl)cc1)C(=O)O [Clofibric acid] | −0.8317
CCN(CC)CCOc1ccc(C(=C(Cl)c2ccccc2)c2ccccc2)cc1.O=C(O)CC(O)(CC(=O)O)C(=O)O [Clomiphene citrate (Z,E)] | −1.755
CN(C)CCCN1c2ccccc2CCc2ccc(Cl)cc21 [Clomipramine hydrochloride] | −1.637
Clc1cccc(Cl)c1N=C1NCCN1 [Clonidine hydrochloride] | 1.056
C[C@@H]1CCC[C@H](C)N1NC(=O)c1ccc(Cl)c(S(N)(=O)=O)c1 [Clopamide] | 0.7847
Clc1ccc(C(OCCN2CCCCC2)c2ccccc2)cc1 (stereo not drawn) [Cloperastine hydrochloride] | −1.185
C#CCN(C)CCCOc1ccc(Cl)cc1Cl [Clorgyline hydrochloride] | 0.1556
Nc1cc(C(Cl)=C(Cl)Cl)c(S(N)(=O)=O)cc1S(N)(=O)=O [Clorsulon] | 0.563
Clc1ccccc1C(c1ccccc1)(c1ccccc1)n1ccnc1 [Clotrimazole] | −1.91
Cc1onc(-c2ccccc2Cl)c1C(=O)N[C@@H]1C(=O)N2[C@@H]1SC(C)(C)[C@@H]2C(=O)O [Cloxacillin sodium salt] | 0.6255
CN1CCN(C2=Nc3cc(Cl)ccc3Nc3ccccc32)CC1 [Clozapine] | 1.049
C[C@H]1[C@H]2CC[C@H]3[C@@H]4CC=C5C[C@@H](N(C)C)CC[C@]5(C)[C@H]4CC[C@]23CN1C [Conessine] | 0.5822
COc1ccc(C(=O)OC2C[C@H]3CC[C@@H](C2)N3C)cc1OC.Cl (stereo partly drawn) [Convolamine hydrochloride] | 1.345
C[C@]12C[C@H](O)[C@H]3[C@@H](CCC4=CC(=O)CC[C@@]43C)[C@@H]1CC[C@@H]2C(=O)CO [Corticosterone] | −0.2486
C[C@]12CCC(=O)C=C1CC[C@@H]1[C@@H]2C(=O)C[C@@]2(C)[C@H]1CC[C@]2(O)C(=O)CO [Cortisone] | 0.9568
